Values of other authors as cited in publication PMC12495087 (ESMO Open, 2025).
Read-outs that look alike come from different tables or passages of the source.

Columns and labels:
[1] = system: RET-fusion-positive NSCLC; settings: cited from earlier work
[2] = cited from earlier work
[3] = system: RET-fusion-positive solid tumors including RET-mutant MTC; settings: cited from earlier work
[4] = previously treated RET-fusion-positive NSCLC, selpercatinib 160 mg twice daily, pralsetinib 400 mg once daily
[5] = advanced RET-rearranged lung adenocarcinomas
[6] = previously treated RET-fusion-positive solid tumors including RET-mutant MTC, 160 mg twice daily
[7] = patients with MTC harboring RET-M918T

## CO[C@]1(C(=O)N[C@@H](C)c2ccc(-n3cc(F)cn3)nc2)CC[C@H](c2nc(C)cc(Nc3cc(C)[nH]n3)n2)CC1 [pralsetinib]
[1]; [4]
  ORR: 61%
[2]
  grade ≥3 hypertension: ~18%

## COc1cc2nccc(Oc3ccc(NC(=O)C4(C(=O)Nc5ccc(F)cc5)CC4)cc3)c2cc1OC [cabozantinib]
[1]; [5]
  ORR: 28%
  mPFS: 5.5 months

## COc1ccc(CN2C3CC2CN(c2ccc(-c4cc(OCC(C)(C)O)cn5ncc(C#N)c45)cn2)C3)cn1 [selpercatinib]
[1]; previously treated RET-fusion-positive NSCLC, 160 mg twice daily
  mPFS: 16.5 months
[1]; [4]
  ORR: 64%
[3]; [6]
  1-year PFS: 82%
  mPFS: 13.2 months
[2]
  grade ≥3 hypertension: around 20%

## COc1cc2nccc(Oc3ccc(NC(=O)NC4CC4)c(Cl)c3)c2cc1C(N)=O [lenvatinib]
[3]; [7]
  ORR: 16%
  mPFS: 7.3 months
